# In ChEMBL document CHEMBL1201861, “Genomics of Drug Sensitity in Cancer screening data, Wellcome Trust Sanger Institute”:
# Tests used:
# Experiment in all cases: cells
# Type in all cases: functional, cell-based
# TCC-SUP = settings: Homo sapiens;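 note: growth inhibition of TCC-SUP cells, read out with a cell viability assay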
# Description: SANGER: Inhibition of human TCCSUP cell growth in a cell viability assay.
# AGS = settings: Homo sapiens;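 note: growth inhibition of AGS cells, determined with a cell viability assay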
# Description: SANGER: Inhibition of human AGS cell growth in a cell viability assay.
# MFE-280 = settings: Homo sapiens;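 note: growth inhibition of MFE-280 cells, determined with a cell viability readout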
# Description: SANGER: Inhibition of human MFE-280 cell growth in a cell viability assay.
# NCI-H596 = settings: Homo sapiens;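 note: growth inhibition of NCI-H596 cells, read out with a cell viability assay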
# Description: SANGER: Inhibition of human NCI-H596 cell growth in a cell viability assay.
# LCLC-97TM1 = settings: Homo sapiens;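 note: cell viability assay measuring growth inhibition of human LCLC-97TM1 cells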
# Description: SANGER: Inhibition of human LCLC-97TM1 cell growth in a cell viability assay.
# EFO-27 = settings: Homo sapiens;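 note: growth inhibition of EFO-27 cells, read out with a cell viability assay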
# Description: SANGER: Inhibition of human EFO-27 cell growth in a cell viability assay.
# SW48 = settings: Homo sapiens;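 note: growth inhibition of SW48 cells, read out with a cell viability assay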
# Description: SANGER: Inhibition of human SW48 cell growth in a cell viability assay.
# Detroit 562 = settings: Homo sapiens;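 note: growth inhibition of human Detroit 562 cells, read out by a cell viability assay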
# Description: SANGER: Inhibition of human Detroit562 cell growth in a cell viability assay.
# EW-22 = settings: Homo sapiens;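 note: growth inhibition of the EW-22 cell line, measured with a cell viability readout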
# Description: SANGER: Inhibition of human EW-22 cell growth in a cell viability assay.
# EGI-1 = settings: Homo sapiens;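 note: cell viability readout used to gauge growth inhibition of EGI-1 cells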
# Description: SANGER: Inhibition of human EGI-1 cell growth in a cell viability assay.
# SW1783 = settings: Homo sapiens;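 note: cell growth inhibition measured with a viability assay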
# Description: SANGER: Inhibition of human SW1783 cell growth in a cell viability assay.
# A-427 = settings: Homo sapiens;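 note: growth inhibition of human A-427 cells, read out by a cell viability assay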
# Description: SANGER: Inhibition of human A427 cell growth in a cell viability assay.
# IGR-1 = settings: Homo sapiens;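 note: growth inhibition of human IGR-1 cells, read out with a cell viability assay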
# Description: SANGER: Inhibition of human IGR-1 cell growth in a cell viability assay.
# SN12C = settings: Homo sapiens;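 note: growth inhibition of human SN12C cells, measured by a cell viability assay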
# Description: SANGER: Inhibition of human SN12C cell growth in a cell viability assay.
# RPMI-7951 = settings: Homo sapiens
# Description: SANGER: Inhibition of human RPMI-7951 cell growth in a cell viability assay.
# SK-MEL-24 = settings: Homo sapiens;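 note: growth inhibition read out by a cell viability assay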
# Description: SANGER: Inhibition of human SK-MEL-24 cell growth in a cell viability assay.
# UACC-893 = settings: Homo sapiens
# Description: SANGER: Inhibition of human UACC-893 cell growth in a cell viability assay.
# Capan-2 = settings: Homo sapiens;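 note: Capan-2 cell growth inhibition, read out with a viability assay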
# Description: SANGER: Inhibition of human Capan-2 cell growth in a cell viability assay.
# DU-145 = settings: Homo sapiens
# Description: SANGER: Inhibition of human DU-145 cell growth in a cell viability assay.
# G-402 = settings: Homo sapiens
# Description: SANGER: Inhibition of human G-402 cell growth in a cell viability assay.
# KP-N-YN = settings: Homo sapiens;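 note: growth inhibition of KP-N-YN cells, read out with a cell viability assay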
# Description: SANGER: Inhibition of human KP-N-YN cell growth in a cell viability assay.
# LCLC-103H cell line = settings: Homo sapiens
# Description: SANGER: Inhibition of human LCLC-103H cell growth in a cell viability assay.
# HN = settings: Homo sapiens
# Description: SANGER: Inhibition of human HN cell growth in a cell viability assay.
# HGC-27 = settings: Homo sapiens;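 note: growth inhibition of human HGC-27 cells, read out in a cell viability assay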
# Description: SANGER: Inhibition of human HGC-27 cell growth in a cell viability assay.
# ME-180 = settings: Homo sapiens;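 note: cell viability assay measuring growth inhibition of ME-180 cells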
# Description: SANGER: Inhibition of human ME-180 cell growth in a cell viability assay.
# SJRH30 = settings: Homo sapiens;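 note: growth inhibition of human SJRH30 cells, read out with a cell viability assay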
# Description: SANGER: Inhibition of human SJRH30 cell growth in a cell viability assay.
# HCT-116 = settings: Homo sapiens
# Description: SANGER: Inhibition of human HCT-116 cell growth in a cell viability assay.
# NCI-H1693 = settings: Homo sapiens;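 note: growth inhibition of the human cell line, read out with a cell viability assay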
# Description: SANGER: Inhibition of human NCI-H1693 cell growth in a cell viability assay.
# SKG-IIIa = settings: Homo sapiens;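 note: cell growth inhibition, read out with a cell viability assay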
# Description: SANGER: Inhibition of human SKG-IIIa cell growth in a cell viability assay.
# MCF7 = settings: Homo sapiens;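 note: growth inhibition of human MCF7 cells, read out with a cell viability assay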
# Description: SANGER: Inhibition of human MCF7 cell growth in a cell viability assay.
# UO-31 = settings: Homo sapiens;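 note: cell viability assay measuring inhibition of cell growth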
# Description: SANGER: Inhibition of human U031 cell growth in a cell viability assay.
# HT55 = settings: Homo sapiens;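 note: cell viability readout measuring growth inhibition of human HT55 cells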
# Description: SANGER: Inhibition of human HT55 cell growth in a cell viability assay.
# KOSC-2 = settings: Homo sapiens;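 note: growth inhibition of KOSC-2 cells, read out by a cell viability assay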
# Description: SANGER: Inhibition of human KOSC-2 cell growth in a cell viability assay.
# OE33 = settings: Homo sapiens;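 note: growth inhibition of human OE33 cells, measured by a cell viability assay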
# Description: SANGER: Inhibition of human OE33 cell growth in a cell viability assay.
# MHH-ES-1 = settings: Homo sapiens;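 note: cell growth inhibition measured by a cell viability assay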
# Description: SANGER: Inhibition of human MHH-ES-1 cell growth in a cell viability assay.
# MEL-HO = settings: Homo sapiens
# Description: SANGER: Inhibition of human MEL-HO cell growth in a cell viability assay.
# COLO-678 = settings: Homo sapiens
# Description: SANGER: Inhibition of human COLO-678 cell growth in a cell viability assay.
# D-392MG = settings: Homo sapiens
# ESS-1 = settings: Homo sapiens;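 note: growth inhibition of human ESS-1 cells, read out by a cell viability assay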
# Description: SANGER: Inhibition of human ESS-1 cell growth in a cell viability assay.
# NCI-H2342 = settings: Homo sapiens;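 note: growth inhibition of the cancer cell line, determined with a cell viability assay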
# Description: SANGER: Inhibition of human NCI-H2342 cell growth in a cell viability assay.
# CWR22R = settings: Homo sapiens, 22Rv1;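 note: growth inhibition of 22Rv1 cells, read out with a cell viability assay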
# Description: SANGER: Inhibition of human 22RV1 cell growth in a cell viability assay.
# MDA-MB-453 = settings: Homo sapiens
# Description: SANGER: Inhibition of human MDA-MB-453 cell growth in a cell viability assay.
# MKN-28 = settings: Homo sapiens;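 note: cell viability assay read-out, IC50 reflects suppression of growth of human MKN-28 cells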
# Description: SANGER: Inhibition of human MKN28 cell growth in a cell viability assay.
# HTC-C3 = settings: Homo sapiens;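 note: inhibition of cell growth, read out with a cell viability assay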
# Description: SANGER: Inhibition of human HTC-C3 cell growth in a cell viability assay.
# LN-405 = settings: Homo sapiens
# Description: SANGER: Inhibition of human LN-405 cell growth in a cell viability assay.
# A673 = settings: Homo sapiens;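 note: growth inhibition of human A673 cells, read out through a cell viability assay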
# Description: SANGER: Inhibition of human A673 cell growth in a cell viability assay.
smiles,measurement,setting,value
CC1(C)CCC(c2ccc(Cl)cc2)=C(CN2CCN(c3ccc(C(=O)NS(=O)(=O)c4ccc(N[C@H](CCN5CCOCC5)CSc5ccccc5)c(S(=O)(=O)C(F)(F)F)c4)cc3)CC2)C1 [NAVITOCLAX],IC50,TCC-SUP,> 2 µM
same,IC50,AGS,> 2 µM
same,IC50,MFE-280,> 2 µM
same,IC50,NCI-H596,> 2 µM
same,IC50,LCLC-97TM1,> 2 µM
same,IC50,EFO-27,> 2 µM
same,IC50,SW48,> 2 µM
same,IC50,Detroit 562,> 2 µM
same,IC50,EW-22,0.467 µM
same,IC50,EGI-1,> 2 µM
same,IC50,SW1783,> 2 µM
same,IC50,A-427,0.93 µM
same,IC50,IGR-1,> 2 µM
same,IC50,SN12C,> 2 µM
same,IC50,RPMI-7951,> 2 µM
same,IC50,SK-MEL-24,> 2 µM
same,IC50,UACC-893,> 2 µM
same,IC50,Capan-2,> 2 µM
same,IC50,DU-145,0.899 µM
same,IC50,G-402,> 2 µM
same,IC50,KP-N-YN,0.236 µM
same,IC50,LCLC-103H cell line,> 2 µM
same,IC50,HN,> 2 µM
same,IC50,HGC-27,> 2 µM
same,IC50,ME-180,> 2 µM
same,IC50,SJRH30,> 2 µM
same,IC50,HCT-116,> 2 µM
same,IC50,NCI-H1693,> 2 µM
same,IC50,SKG-IIIa,> 2 µM
same,IC50,MCF7,> 2 µM
same,IC50,UO-31,> 2 µM
same,IC50,HT55,> 2 µM
same,IC50,KOSC-2,> 2 µM
same,IC50,OE33,> 2 µM
same,IC50,MHH-ES-1,> 2 µM
same,IC50,MEL-HO,> 2 µM
same,IC50,COLO-678,> 2 µM
same,IC50,D-392MG,> 2 µM
same,IC50,ESS-1,> 2 µM
same,IC50,NCI-H2342,1.4 µM
same,IC50,CWR22R,> 2 µM
same,IC50,MDA-MB-453,> 2 µM
same,IC50,MKN-28,> 2 µM
same,IC50,HTC-C3,> 2 µM
same,IC50,LN-405,> 2 µM
same,IC50,A673,> 2 µM
CN(C)CCOc1ccc(-c2nc(-c3ccncc3)c(-c3ccc4c(c3)CC/C4=N\O)[nH]2)cc1 [SB590885],IC50,TCC-SUP,> 5 µM
same,IC50,AGS,> 5 µM
same,IC50,MFE-280,> 5 µM
same,IC50,NCI-H596,> 5 µM
same,IC50,LCLC-97TM1,> 5 µM
same,IC50,EFO-27,> 5 µM
same,IC50,SW48,> 5 µM
same,IC50,Detroit 562,> 5 µM
same,IC50,EW-22,> 5 µM
same,IC50,EGI-1,> 5 µM
same,IC50,SW1783,> 5 µM
same,IC50,A-427,> 5 µM
same,IC50,IGR-1,> 5 µM
same,IC50,SN12C,> 5 µM
same,IC50,RPMI-7951,> 5 µM
same,IC50,Capan-2,> 5 µM
same,IC50,DU-145,> 5 µM
same,IC50,G-402,> 5 µM
same,IC50,KP-N-YN,> 5 µM
same,IC50,LCLC-103H cell line,> 5 µM
same,IC50,HN,> 5 µM
same,IC50,HGC-27,> 5 µM
same,IC50,ME-180,> 5 µM
same,IC50,SJRH30,> 5 µM
same,IC50,HCT-116,> 5 µM
same,IC50,NCI-H1693,> 5 µM
same,IC50,SKG-IIIa,> 5 µM
same,IC50,MCF7,> 5 µM
same,IC50,UO-31,> 5 µM
same,IC50,HT55,> 5 µM
same,IC50,KOSC-2,> 5 µM
same,IC50,OE33,> 5 µM
same,IC50,MHH-ES-1,> 5 µM
same,IC50,MEL-HO,0.0693 µM
same,IC50,COLO-678,> 5 µM
same,IC50,D-392MG,> 5 µM
same,IC50,ESS-1,> 5 µM
same,IC50,NCI-H2342,> 5 µM
same,IC50,CWR22R,> 5 µM
same,IC50,MDA-MB-453,> 5 µM
same,IC50,MKN-28,> 5 µM
same,IC50,HTC-C3,> 5 µM
same,IC50,LN-405,> 5 µM
same,IC50,A673,> 5 µM
CS(=O)(=O)N1CCN(Cc2cc3nc(-c4cccc5[nH]ncc45)nc(N4CCOCC4)c3s2)CC1 [PICTILISIB],IC50,TCC-SUP,> 4 µM
same,IC50,AGS,3.62 µM
same,IC50,MFE-280,0.418 µM
same,IC50,NCI-H596,> 4 µM
same,IC50,LCLC-97TM1,2.69 µM
same,IC50,EFO-27,> 4 µM
same,IC50,SW48,> 4 µM
same,IC50,Detroit 562,> 4 µM
same,IC50,EW-22,2.25 µM
same,IC50,EGI-1,1.85 µM
same,IC50,SW1783,> 4 µM
same,IC50,A-427,> 4 µM
same,IC50,IGR-1,> 4 µM
same,IC50,SN12C,> 4 µM
same,IC50,RPMI-7951,> 4 µM
same,IC50,SK-MEL-24,> 4 µM
same,IC50,UACC-893,> 4 µM
same,IC50,Capan-2,> 4 µM
same,IC50,DU-145,> 4 µM
same,IC50,G-402,1.9 µM
same,IC50,KP-N-YN,> 4 µM
same,IC50,LCLC-103H cell line,> 4 µM
same,IC50,HN,3.07 µM
same,IC50,HGC-27,0.213 µM
same,IC50,ME-180,1.93 µM
same,IC50,SJRH30,> 4 µM
same,IC50,HCT-116,> 4 µM
same,IC50,NCI-H1693,> 4 µM
same,IC50,SKG-IIIa,2.66 µM
same,IC50,MCF7,0.899 µM
same,IC50,UO-31,> 4 µM
same,IC50,HT55,> 4 µM
same,IC50,KOSC-2,> 4 µM
same,IC50,OE33,> 4 µM
same,IC50,MHH-ES-1,> 4 µM
same,IC50,MEL-HO,2.68 µM
same,IC50,COLO-678,> 4 µM
same,IC50,D-392MG,> 4 µM
same,IC50,ESS-1,> 4 µM
same,IC50,NCI-H2342,> 4 µM
same,IC50,CWR22R,2.46 µM
same,IC50,MDA-MB-453,> 4 µM
same,IC50,MKN-28,> 4 µM
same,IC50,HTC-C3,3.29 µM
same,IC50,LN-405,> 4 µM
same,IC50,A673,> 4 µM
